pIC50: −log10 of the molar value. Where two headings read alike, the source gives them in different places.
Assays:
Assay type in all cases: biochemical
ALK = assay: In vitro transcription-translation (IVTT) assay, ALK reporter; settings: HeLa S3 lysate, sfGFP/mCherry ratio, 2 hrs at 30° C.
In short: (§1)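 Reporter: mCherry, P2A, then 3×FLAG-target peptide-sfGFP fusion, IRES-initiated; HeLa S3 lysate IVTT; cpd dilutions 30 μM−0.1 μM half-log in 100% DMSO (dilution-plate conc); DNA added last; 2 h, 30° C; PBS quench.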

CCND1 = assay: In vitro transcription-translation (IVTT) assay, CCND1 reporter; settings: HeLa S3 lysate, sfGFP/mCherry ratio
In short: as §1

KRAS G12D = assay: In vitro transcription-translation (IVTT) assay, KRAS G12D reporter; settings: HeLa S3 lysate, sfGFP/mCherry ratio, 2 hrs at 30° C.
In short: as §1

MCL-1 = assay: In vitro transcription-translation (IVTT) assay, MCL-1 reporter; settings: HeLa S3 lysate, sfGFP/mCherry ratio
In short: as §1

MYC = assay: In vitro transcription-translation (IVTT) assay, MYC reporter; settings: HeLa S3 lysate, 2 hrs at 30° C.
In short: as §1

CCNTB1 = assay: In vitro transcription-translation (IVTT) assay, CCNTB1 reporter; settings: HeLa S3 lysate, sfGFP/mCherry ratio
Experimental: In vitro transcription-translation assay setup: Each assay includes a master mix containing lysate and shared components, a 96-well plate containing compound titrations for testing, a 96-well DNA plate with reporter constructs to be tested, 96-well skirted PCR plates, and 96-well flat-bottom, black, fluorescent assay plates. Reaction materials setup: (A) Master mix—15 mL conical tube (3 mL of HeLa S3 Lysate described above; 0.6 mL of ThermoFisher Accessory Proteins (#88882); 1.2 ml of ThermoFisher Reaction Mix (#88882); 0.54 mL of nuclease-free Water); (B) 96-Well Master Mix+Compound Plate (Half-log dilutions (30 μM−0.1 μM) of 4 compounds of interest are prepared in 100% DMSO); 96-Well DNA Plate (Five DNA constructs are plated into single columns within the plate. Row 1 of the column contains nuclease free H2O, all other wells contain 110 ng/μL plasmid DNA). Reactions are started by mixing 155 μL of master mix and 3.5 μL of compound serial dilutions, then 9.1 μL of master mix+compound mixture is aliquoted across 5 96-well plates. Reactions begin with final addition of 2 μL of DNA for a 11.1 μL reaction volume in each well. The entire plate is sealed, and incubated for 2 hrs at 30° C. After 2 hrs, quench the assay using 45 μL of PBS, and transfer 50 μL to a flat-bottom black microplate Quantify the sfGFP and mCherry signals from each well on each plate, taking 3 reads of each plate, and perform data analysis below.
In vitro transcription-translation assay data analysis: Each plate is read three times in channels for both sfGFP and mCherry signals. The average signal across these 3 reads is then calculated for further analysis. Control wells containing no DNA reporter are subtracted from reporter wells in the same column to remove auto-fluorescence of the lysate. Then, the ratio of sfGFP/mCherry is calculated per well, and these ratios are averaged across the triplicate experiments on the same plate. Finally, the ratio of each titration concentration is normalized to the no drug control to create the normalized stalling metric. The error on this measurement is determined by propagating error through the averaging and normalization steps. Values are plotted and fit for IC50 determination for each test sequence and titration of compound.

[1] = IVTT assay, MYC reporter, normalized sfGFP/mCherry ratio, half-log dilutions 30 μM-0.1 μM
[2] = IVTT assay, read-out: MCL1 IC50

| pIC50 (ALK) | pIC50 (CCND1; 2 hrs at 30° C.) | pIC50 (KRAS G12D) | pIC50 (MCL-1; 2 hrs at 30° C.) | pIC50 (MYC; sfGFP/mCherry ratio) | pIC50 (CCND1; IVTT assay) | pIC50 (CCNTB1) | pIC50 (MCL-1; [2]) | SMILES | pIC50 (MYC; [1]) |
| --- | --- | --- | --- | --- | --- | --- | --- | --- | --- |
| > 5.00 | > 5.00 | > 5.00 | > 5.00 | – | – | – | – | COc1ccc(C[C@H]2NC[C@H](O)[C@H]2OC(=O)NCCCCO)cc1 [V187586, (2R,3S,4S)-4-hydroxy-2-[(4-methoxyphenyl)methyl]pyrrolidin-3-yl N-(4-hydroxybutyl)carbamate] | – |
| > 5.00 | > 5.00 | > 5.00 | > 5.00 | > 5.00 | – | – | – | COc1ccc(C[C@H]2NC[C@H](O)[C@H]2OC(=O)NCCCCCO)cc1 [V187587, (2R,3S,4S)-4-hydroxy-2-[(4-methoxyphenyl)methyl]pyrrolidin-3-yl N-(5-hydroxypentyl)carbamate] | – |
| > 5.00 | > 5.00 | > 5.00 | > 5.00 | > 5.00 | – | – | – | COc1ccc(C[C@H]2NC[C@H](O)[C@H]2OC(=O)NCCCN)cc1 [V187591] | – |
| > 5.00 | > 5.00 | > 5.00 | > 5.00 | > 5.00 | – | – | – | COc1ccc(C[C@H]2NC[C@H](O)[C@H]2OC(=O)NCc2cocn2)cc1 [V187767, (2R,3S,4S)-4-hydroxy-2-[(4-methoxyphenyl)methyl]pyrrolidin-3-yl N-(1,3-oxazol-4-ylmethyl)carbamate] | – |
| > 5.00 | < 4.52 | < 4.52 | – | 4.70 to 5.00 | – | – | – | COc1ccc(C[C@H]2NC[C@H](O)[C@H]2OC(=O)NCCc2nc3ccc(Cl)cc3[nH]2)cc1 [V187821, (2R,3S,4S)-4-hydroxy-2-[(4-methoxyphenyl)methyl]pyrrolidin-3-yl N-[2-(5-chloro-3H-1,3-benzodiazol-2-yl)ethyl]carbamate] | – |
| – | – | – | – | – | < 4.52 | < 4.52 | < 4.52 | O=C(NCc1ccccc1)O[C@@H]1[C@@H](O)CN[C@@H]1Cn1cccn1 [V188209, (2R,3S,4S)-4-hydroxy-2-(pyrazol-1-ylmethyl)pyrrolidin-3-yl N-benzylcarbamate] | < 4.52 |
| – | – | – | – | – | < 4.52 | 4.52 to 4.70 | < 4.52 | O=C(NCc1cccc(F)c1)O[C@@H]1[C@@H](O)CN[C@@H]1Cc1cccnc1 [V190519, (2R,3S,4S)-4-hydroxy-2-(pyridin-3-ylmethyl)pyrrolidin-3-yl N-[(3-fluorophenyl)methyl]carbamate] | 4.52 to 4.70 |
| – | – | – | – | – | < 4.52 | > 5.00 | 4.70 to 5.00 | COc1ccc(C[C@H]2NC[C@H](O)[C@H]2OC(=O)NCC[C@@H]2CC(F)(F)CN2)cc1 [V190526, (2R,3S,4S)-4-hydroxy-2-[(4-methoxyphenyl)methyl]pyrrolidin-3-yl N-{2-[(2R)-4,4-difluoropyrrolidin-2-yl]ethyl}carbamate] | 4.70 to 5.00 |
| – | – | – | – | – | < 4.52 | 4.52 to 4.70 | < 4.52 | O=C(NCc1cccc(F)c1)O[C@@H]1[C@@H](O)CN[C@@H]1Cc1ccc(-c2cnoc2)cc1 [V190543, (2R,3S,4S)-4-hydroxy-2-{[4-(1,2-oxazol-4-yl)phenyl]methyl}pyrrolidin-3-yl N-[(3-fluorophenyl)methyl]carbamate] | > 5.00 |
| – | – | – | – | – | 4.70 to 5.00 | > 5.00 | > 5.00 | O=C(NCC[C@@H]1CCCN1)O[C@@H]1[C@@H](O)CN[C@@H]1Cc1ccc(-c2ccc(Cl)s2)cc1 [V191891, (2R,3S,4S)-2-{[4-(5-chlorothiophen-2-yl)phenyl]methyl}-4-hydroxypyrrolidin-3-yl N-{2-[(2S)-pyrrolidin-2-yl]ethyl}carbamate] | > 5.00 |
| – | – | – | – | – | 4.70 to 5.00 | > 5.00 | > 5.00 | COc1ccc(C[C@H]2NC[C@H](O)[C@H]2OC(=O)NCC[C@@H]2CCCNC2)cc1 [V191903, (2R,3S,4S)-4-hydroxy-2-[(4-methoxyphenyl)methyl]pyrrolidin-3-yl N-{2-[(3S)-piperidin-3-yl]ethyl}carbamate] | > 5.00 |
| – | – | – | – | – | 4.70 to 5.00 | > 5.00 | > 5.00 | COc1ccc(C[C@H]2NC[C@H](O)[C@H]2OC(=O)NCC[C@]2(C)CCCN2)cc1 [V191921, (2R,3S,4S)-4-hydroxy-2-[(4-methoxyphenyl)methyl]pyrrolidin-3-yl N-{2-[(2S)-2-methylpyrrolidin-2-yl]ethyl}carbamate] | > 5.00 |
| – | – | – | – | – | 4.70 to 5.00 | > 5.00 | > 5.00 | COc1ccc(C[C@H]2NC[C@H](O)[C@H]2OC(=O)NCc2cc(F)c(O)c(F)c2)cc1 [V191939, (2R,3S,4S)-4-hydroxy-2-[(4-methoxyphenyl)methyl]pyrrolidin-3-yl N-[(3,5-difluoro-4-hydroxyphenyl)methyl]carbamate] | 4.70 to 5.00 |
| – | – | – | – | – | 4.70 to 5.00 | > 5.00 | > 5.00 | COc1ccc(C[C@H]2NC[C@H](O)[C@H]2OC(=O)NCCN2CCCS2(=O)=O)cc1 [V191944, (2R,3S,4S)-4-hydroxy-2-[(4-methoxyphenyl)methyl]pyrrolidin-3-yl N-[2-(1,1-dioxo-1lambda6,2-thiazolidin-2-yl)ethyl]carbamate] | > 5.00 |
| – | – | – | – | – | > 5.00 | > 5.00 | – | COc1ccc(C[C@H]2NC[C@H](O)[C@H]2OC(=O)NCCC2(N)CC2)cc1 [V191989, (2R,3S,4S)-4-hydroxy-2-(4-methoxybenzyl)pyrrolidin-3-yl (2-(1-aminocyclopropyl)ethyl)carbamate] | > 5.00 |
| – | – | – | – | – | 4.70 to 5.00 | > 5.00 | – | O=C(NCC[C@H]1CCCN1)O[C@@H]1[C@@H](O)CN[C@@H]1Cc1ccc(-c2ccccc2)cc1 [V192036, (2R,3S,4S)-2-{[1,1′-biphenyl]-4-ylmethyl}-4-hydroxypyrrolidin-3-yl N-{2-[(2R)-pyrrolidin-2-yl]ethyl}carbamate] | > 5.00 |
| – | – | – | – | – | – | > 5.00 | – | O=C(NCC[C@H]1CCCN1)O[C@@H]1[C@@H](O)CN[C@@H]1Cc1ccc(-c2ccc(F)c(F)c2)cc1 [V192037, (2R,3S,4S)-2-({3′,4′-difluoro-[1,1′-biphenyl]-4-yl}methyl)-4-hydroxypyrrolidin-3-yl N-{2-[(2R)-pyrrolidin-2-yl]ethyl}carbamate] | 4.70 to 5.00 |
| – | – | – | – | – | < 4.52 | < 4.52 | – | O=C(NCC[C@H]1CCCN1)O[C@@H]1[C@@H](O)CN[C@@H]1Cc1ccc(-c2ccc(C(F)(F)F)cc2)cc1 [V192038, (2R,3S,4S)-4-hydroxy-2-{[4′-(trifluoromethyl)-[1,1′-biphenyl]-4-yl]methyl}-pyrrolidin-3-yl N-{2-[(2R)-pyrrolidin-2-yl]ethyl}carbamate; Trifluoroacetic Acid] | < 4.52 |
| – | – | – | – | – | < 4.52 | < 4.52 | – | O=C(NCC[C@H]1CCCN1)O[C@@H]1[C@@H](O)CN[C@@H]1Cc1ccc(-c2ccc(S(F)(F)(F)(F)F)cc2)cc1 [V192039, (2R,3S,4S)-4-hydroxy-2-{[4′-(pentafluoro-lambda6-sulfanyl)-[1,1′-biphenyl]-4-yl]methyl}pyrrolidin-3-yl N-{2-[(2R)-pyrrolidin-2-yl]ethyl}carbamate] | < 4.52 |

| SMILES | pIC50 (ALK) | pIC50 (CCND1; 2 hrs at 30° C.) | pIC50 (KRAS G12D) | pIC50 (MCL-1; 2 hrs at 30° C.) | pIC50 (MYC; sfGFP/mCherry ratio) | pIC50 (CCND1; IVTT assay) | pIC50 (CCNTB1) | pIC50 (MCL-1; [2]) | pIC50 (MYC; [1]) |
| --- | --- | --- | --- | --- | --- | --- | --- | --- | --- |
| COc1ccc(C[C@H]2NC[C@H](O)[C@H]2OC(=O)NCCCCCn2ccnc2)cc1 [V187636, (2R,3S,4S)-4-hydroxy-2-[(4-methoxyphenyl)methyl]pyrrolidin-3-yl N-[5-(imidazol-1-yl)pentyl]carbamate; trifluoroacetic acid] | > 5.00 | – | > 5.00 | > 5.00 | > 5.00 | – | – | – | – |
| COc1ccc(C[C@H]2NC[C@H](O)[C@H]2OC(=O)NCCc2ccon2)cc1 [V187700, (2R,3S,4S)-4-hydroxy-2-[(4-methoxyphenyl)methyl]pyrrolidin-3-yl N-[2-(1,2-oxazol-3-yl)ethyl]carbamate; trifluoroacetic acid] | > 5.00 | > 5.00 | > 5.00 | > 5.00 | > 5.00 | – | – | – | – |

From patent US20250129021A1, “SMALL MOLECULE PROTEIN SYNTHESIS MODULATORS” (Interdict Bio, Inc., priority 2023, published 2025)
